From PMC10353187, “Discovery of a new potent oxindole multi-kinase inhibitor among a series of designed 3-alkenyl-oxindoles with ancillary carbonic anhydrase inhibitory activity as antiproliferative agents” (BMC Chemistry, 2023)

Assays:
hCA II = hCA II (Homo sapiens, UniProt P00918); experiment: Stopped flow CO2 hydrase assay
hCA IX = hCA IX (Homo sapiens, UniProt Q16790); experiment: Stopped flow CO2 hydrase assay; details: for Selectivity ratio I/IX: Ki hCA I / Ki hCA IX; for Selectivity ratio II/IX: Ki hCA II / Ki hCA IX
hCA I = hCA I (Homo sapiens, UniProt P00915); experiment: Stopped flow CO2 hydrase assay
hCA I, sequence (P00915 whole entry): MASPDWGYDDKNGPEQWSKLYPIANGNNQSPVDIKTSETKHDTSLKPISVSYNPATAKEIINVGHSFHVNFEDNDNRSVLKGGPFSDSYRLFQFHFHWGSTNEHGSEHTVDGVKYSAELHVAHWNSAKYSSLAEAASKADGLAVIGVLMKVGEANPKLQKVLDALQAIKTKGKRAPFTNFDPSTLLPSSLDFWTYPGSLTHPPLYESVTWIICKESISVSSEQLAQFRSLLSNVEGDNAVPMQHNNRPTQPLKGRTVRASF

hCA XII = hCA XII (Homo sapiens, UniProt O43570); experiment: Stopped flow CO2 hydrase assay; details: for Selectivity ratio I/XII: Ki hCA I / Ki hCA XII; for Selectivity ratio II/XII: Ki hCA II / Ki hCA XII
hCA XII, sequence (O43570 25-354): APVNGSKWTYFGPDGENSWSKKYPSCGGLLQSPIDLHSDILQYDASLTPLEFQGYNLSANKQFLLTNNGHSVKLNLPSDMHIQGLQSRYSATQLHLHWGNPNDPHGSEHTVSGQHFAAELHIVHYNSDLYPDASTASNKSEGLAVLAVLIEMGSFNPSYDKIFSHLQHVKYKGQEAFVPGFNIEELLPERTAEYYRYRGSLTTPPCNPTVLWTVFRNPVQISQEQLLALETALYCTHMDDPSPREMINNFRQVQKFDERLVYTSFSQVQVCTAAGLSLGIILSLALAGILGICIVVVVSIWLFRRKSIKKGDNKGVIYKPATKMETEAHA

UO-31 = experiment: NCI-60 single-dose antiproliferative assay (SRB); assay type: cell-based, human; details: Homo sapiens, UO-31, 10 μM single dose; UO-31, Renal cancer; read-out: Cell Growth inhibition Percent
Protocol: (§1) From the newly synthesized compounds, eleven compounds (4c, 4d, 5, 9a, 9b, 11a, 11b, 13b, 13c, 15b, and 15c) were selected by the National Cancer Institute (NCI) Developmental Therapeutics Program (DTP), Bethesda, Maryland, USA for the in vitro anti-proliferative activity evaluation. The selected compounds were examined at 10 μM dose against the NCI 60-cell line panel. This panel consists of nine cell line groups of leukemia, non-small cell lung carcinoma (NSCLC), melanoma, colon, CNS, ovarian, renal, prostate, and breast cancers. The results are reported as mean-graph of the percent growth relative to control and presented as percentage growth inhibition (GI%), furthermore, mean GI% of each compound over all panel cell lines was calculated (Table 1; Additional file 1; S3: In vitro biological activity).
(§2) From the newly synthesized compounds, eleven compounds were selected by the National Cancer Institute (NCI) Developmental Therapeutics Program (DTP), Bethesda, Maryland, USA for the in vitro anti-proliferative activity evaluation (For further details see supplementary materials).
(§3) NCI In-vitro Cancer Screening is a two-phase procedure that starts with the assessment of all compounds against the sixty NCI cell line panel depicting leukemia, NSCLC, CNS cancer, melanoma, prostate cancer, breast cancer, renal cancer, colon cancer and ovarian cancer cell lines at a single point of 10μM. The output from the single-dose screen is reportable as a mean graph.
(§4) The human tumor cell lines of the cancer screening panel were grown in RPMI 1640 medium containing 5% fetal bovine serum and 2 mM L-glutamine. For a typical screening experiment, cells were inoculated into 96 well microtiter plates in […] at plating densities ranging from 5000 to 40,000 cells/well depending on the doubling time of individual cell lines. After cell inoculation, the microtiter plates were incubated at 37 °C, 5% CO2, 95% air and 100% relative humidity for 24 h prior to addition of experimental drugs. After 24 h, two plates of each cell line were fixed in situ with trichloroacetic acid (TCA), to represent a measurement of the cell population for each cell line at the time of drug addition (Tz). Experimental drugs were solubilized in dimethyl sulfoxide at 400-fold the desired final maximum test concentration and stored frozen prior to use. At the time of drug addition, an aliquot of frozen concentrate was thawed and diluted to twice the desired final maximum test concentration with complete medium containing 50 µg/ml gentamicin. Aliquot of 100 µl of the drug dilution was added to the appropriate microtiter wells already containing 100 µl of medium, resulting in the required final drug concentration (10 µM). Triplicate wells were prepared for each individual dose. Following drug addition, the plates were incubated for an additional 48 h at 37 °C, 5% CO2, 95% air, and 100% relative humidity. For adherent cells, the assay was terminated by the addition of cold TCA. Cells were fixed in situ by the gentle addition of 50 µl of cold 50% (w/v) TCA (final concentration, 10% TCA) and incubated for 60 min at 4 °C. The supernatant was discarded, and the plates were washed five times with tap water and air dried. Sulforhodamine B (SRB) solution (100 µl) at 0.4% (w/v) in 1% acetic acid was added to each well, and plates were incubated for 10 min at room temperature. After staining, unbound dye was removed by washing five times with 1% acetic acid and the plates were air dried. Bound stain was subsequently solubilized with 10 mM trizma base, and the absorbance was read on an automated plate reader at a wavelength of 515 nm. For suspension cells, the methodology was the same except that the assay was terminated by fixing settled cells at the bottom of the wells by gently adding 50 µl of 80% TCA (final concentration, 16% TCA). […]

HCT-116 = experiment: NCI-60 single-dose antiproliferative assay (SRB); assay type: cell-based; details: Homo sapiens; 10 μM single dose; HCT-116, Colon cancer; read-out: Cell Growth inhibition Percent
Protocol: as §1, §2, §3, §4

SNB-75 = experiment: NCI-60 single-dose antiproliferative assay (SRB); assay type: cell-based; details: Homo sapiens; 10 μM single dose; SNB-75, CNS cancer; read-out: Cell Growth inhibition Percent
Protocol: as §1, §2, §3, §4

NCI-H522 = experiment: NCI-60 single-dose antiproliferative assay (SRB); assay type: cell-based; details: Homo sapiens; 10 μM single dose; NCI-H522, Non-small cell lung cancer; read-out: Cell Growth inhibition Percent
Protocol: as §1, §2, §3, §4

KM12 = experiment: NCI-60 single-dose antiproliferative assay (SRB); assay type: cell-based; details: Homo sapiens; 10 μM single dose; KM12, Colon cancer; read-out: Cell Growth inhibition Percent
Protocol: as §1, §2, §3, §4

EKVX = experiment: NCI-60 single-dose antiproliferative assay (SRB); assay type: cell-based; details: Homo sapiens, 10 μM single dose, Non-small cell lung cancer, read-out: Cell Growth inhibition Percent
Protocol: as §1, §2, §3, §4

HOP-92 = experiment: NCI-60 single-dose antiproliferative assay (SRB); assay type: cell-based; details: Homo sapiens; 10 μM single dose; HOP-92, Non-small cell lung cancer; read-out: Cell Growth inhibition Percent
Protocol: as §1, §2, §3, §4

HOP-62 = experiment: NCI-60 single-dose antiproliferative assay (SRB); assay type: cell-based; details: Homo sapiens; 10 μM single dose; HOP-62, Non-small cell lung cancer; read-out: Cell Growth inhibition Percent
Protocol: as §1, §2, §3, §4

T-47D = experiment: NCI-60 single-dose antiproliferative assay (SRB); assay type: cell-based; details: Homo sapiens, T47D, 10 μM single dose, Breast cancer, read-out: Cell Growth inhibition Percent
Protocol: as §1, §2, §3, §4

NCI-H23 = experiment: NCI-60 single-dose antiproliferative assay (SRB); assay type: cell-based; details: Homo sapiens; 10 μM single dose; NCI-H23, Non-small cell lung cancer; read-out: Cell Growth inhibition Percent
Protocol: as §1, §2, §3, §4

SK-MEL-5 = experiment: NCI-60 single-dose antiproliferative assay (SRB); assay type: cell-based; details: Homo sapiens; 10 μM single dose; SK-MEL-5, Melanoma; read-out: Cell Growth inhibition Percent
Protocol: as §1, §2, §3, §4

PC-3 = experiment: NCI-60 single-dose antiproliferative assay (SRB); assay type: cell-based; details: Homo sapiens; 10 μM single dose; PC-3, Prostate cancer; read-out: Cell Growth inhibition Percent
Protocol: as §1, §2, §3, §4

CAKI-1 = experiment: NCI-60 single-dose antiproliferative assay (SRB); assay type: cell-based; details: Homo sapiens; 10 μM single dose; CAKI-1, Renal cancer; read-out: Cell Growth inhibition Percent
Protocol: as §1, §2, §3, §4

SR = experiment: NCI-60 single-dose antiproliferative assay (SRB); assay type: cell-based; details: Homo sapiens, 10 μM single dose, Leukemia, read-out: Cell Growth inhibition Percent
Protocol: as §1, §2, §3, §4

NCI-H226 = experiment: NCI-60 single-dose antiproliferative assay (SRB); assay type: cell-based; details: Homo sapiens; 10 μM single dose; NCI-H226, Non-small cell lung cancer; read-out: Cell Growth inhibition Percent
Protocol: as §1, §2, §3, §4

K-562 = experiment: NCI-60 single-dose antiproliferative assay (SRB); assay type: cell-based; details: Homo sapiens, K562; 10 μM single dose; K-562, Leukemia; read-out: Cell Growth inhibition Percent
Protocol: as §1, §2, §3, §4

MCF7 = experiment: NCI-60 single-dose antiproliferative assay (SRB); assay type: cell-based; details: Homo sapiens; 10 μM single dose; MCF7, Breast cancer; read-out: Cell Growth inhibition Percent
Protocol: as §1, §2, §3, §4

HCT-15 = experiment: NCI-60 single-dose antiproliferative assay (SRB); assay type: cell-based; details: Homo sapiens; 10 μM single dose; HCT-15, Colon cancer; read-out: Cell Growth inhibition Percent
Protocol: as §1, §2, §3, §4

SN12C = experiment: NCI-60 single-dose antiproliferative assay (SRB); assay type: cell-based; details: Homo sapiens, 10 μM single dose, Renal cancer, read-out: Cell Growth inhibition Percent
Protocol: as §1, §2, §3, §4

[1] = Fig. 2; read-out: cytotoxicity average IC50; cited from earlier work
FGFRI = details: FGFR-1, inhibitor co-crystallized in PDB ID: 4V01; ref 5 (supplement); read-out: IC50; cited from earlier work

Row | Ki (hCA II) | Ki (hCA IX) | Ki (hCA I) | Ki (hCA XII) | melting point | Selectivity ratio I/IX (hCA IX) | Selectivity ratio II/IX (hCA IX) | Selectivity ratio I/XII (hCA XII) | Selectivity ratio II/XII (hCA XII) | Compound | further results
1 | > 10000 nM | > 10000 nM | > 10000 nM | > 10000 nM | 150 to 153 °C |  |  |  |  | O=C1Nc2ccccc2C1=CNc1ccc(CNc2nccs2)cc1 [Compound 11c, 3-{[(4-((Thiazol-2-ylamino)methyl)phenyl)amino]methylene}indolin-2-one] | 
2 | 762 nM | 863 nM | 845 nM | 175 nM |  | 0.98 | 0.88 | 4.83 | 4.36 | NS(=O)(=O)c1ccc(NC(=O)Nc2ccc(NC=C3C(=O)Nc4ccccc43)cc2)cc1 [Compound 15a, 4-{3-[4-({[2-Oxoindolin-3-ylidene]methyl}amino)phenyl]ureido}benzenesulfonamide] | 
3 | > 10000 nM | > 10000 nM | > 10000 nM | > 10000 nM | > 300 °C |  |  |  |  | O=C(Nc1ccc(NC=C2C(=O)Nc3ccccc32)cc1)Nc1ccc(S(=O)(=O)Nc2ncccn2)cc1 [Compound 15b, 4-{3-[4-({[2-Oxoindolin-3-ylidene]methyl}amino)phenyl]ureido}-N-(pyrimidin-2-yl)benzenesulfonamide] | inhibition at 10 µM (UO-31): 18.3%; inhibition at 10 µM (HCT-116): 7.3%; inhibition at 10 µM (SNB-75): 1.02%; inhibition at 10 µM (NCI-H522): 4.97%; inhibition at 10 µM (KM12): 49.1%; inhibition at 10 µM (EKVX): 1.92%; inhibition at 10 µM (HOP-92): 5.79%; inhibition at 10 µM (HOP-62): 1.01%; inhibition at 10 µM (T-47D): 7.81%; inhibition at 10 µM (NCI-H23): 72.8%; inhibition at 10 µM (SK-MEL-5): 0.02%; inhibition at 10 µM (PC-3): 5.91%; inhibition at 10 µM (CAKI-1): 5.21%; inhibition at 10 µM (SR): 3.55%; inhibition at 10 µM (NCI-H226): 3.3%; inhibition at 10 µM (K-562): 2.05%; inhibition at 10 µM (MCF7): 15%; inhibition at 10 µM (HCT-15): 2.59%; inhibition at 10 µM (SN12C): 1.23%

Continued, compound first:

Row | Compound | Ki (hCA II) | Ki (hCA IX) | Ki (hCA I) | Ki (hCA XII) | melting point | Selectivity ratio I/IX (hCA IX) | Selectivity ratio II/IX (hCA IX) | Selectivity ratio I/XII (hCA XII) | Selectivity ratio II/XII (hCA XII) | further results
4 | NS(=O)(=O)c1ccc(NC=CC(=O)c2ccc(NC=C3C(=O)Nc4ccccc43)cc2)cc1 [Compound 13a, 4-{[-3-Oxo-3-(4-{[(-2-oxoindolin-3-ylidene)methyl]amino}phenyl)prop-1-en-1-yl]amino}benzenesulfonamide] | 307 nM | 91.3 nM | 483 nM | 183 nM | 275 to 278 °C | 5.29 | 3.36 | 2.64 | 1.68 | 
5 | O=C1Nc2ccc(Cl)cc2/C1=N/Nc1nc(-c2ccccc2)cs1 [XIV] |  |  |  |  |  |  |  |  |  | IC50 [1]: 4660 nM
6 | Cc1ccc(C(=O)Nc2ccc(CN3CCN(C)CC3)c(C(F)(F)F)c2)cc1C#Cc1cnc2cccnn12 [ponatinib] |  |  |  |  |  |  |  |  |  | IC50 (FGFRI): 0.7 nM
